Experimental data published in patent US10961274B2, “Self-assembling peptides comprising non-ionic polar amino acids for anti-adhesion” (3-D Matrix, Ltd., priority 2015, dated 2021).
Values belong to the molecule of their own block, whether it stands above or below them. Peptide text beside a SMILES is read from it.

What was measured:
[1] = Atomic Force Microscopy (AFM) morphological study of peptide nano structures; format: physicochemical; conditions: 100 μM peptide solution on mica, air-dried, tapping mode
Procedure: Atomic Force Microscopy (AFM) images of ST14 and T14 peptides were investigated to visualize their nano structures. […] Each sample was left on the mica for about 30 seconds (s) and then rinsed with aliquots of 100 μl of Milli-Q (ultrapure) water to remove unattached peptides. The sample on the mica surface was then air-dried for AFM observation. AFM was performed with Asylum-1 MFP-3D AFM System (Asylum Research, Santa Barbara, Calif.) using a tapping mode. The images utilized an Olympus Si tip (AC240FS). The cantilever's free resonance frequency was 70 kHz.

[2] = Autoclave stability/sterilization, mass spectrometry before and after autoclave; format: physicochemical; conditions: 121° C. for 25 min, high pressure saturated steam; N-terminus and C-terminus not protected
Excerpt: Sterilization is a very important step in the manufacturing process for all biomaterials, including the self-assembling peptide solutions.

[3] = Dissolution in deionized water and visual appearance of peptide solution; format: physicochemical
Procedure: ST14 and T14 were tested for dissolution in deionized water and appearance in solution at various concentrations.

[4] = pH of peptide solutions in deionized water; format: physicochemical
Procedure: The pH of the peptides in deionized water to provide a peptide solution were measured at various concentrations. […] ST14 and T14 were tested. The recorded pH values ranged from about 1.9 to about 2.5.

[5] = Congo Red assay of gel formation in PBS buffer (pH 7.4); format: physicochemical
Procedure: A Congo Red assay was performed to determine gel formation of peptide solutions in a PBS buffer solution (pH 7.4). 100 μl of each gel at varying concentrations were plated on a glass slide. After 30 seconds, 500 μl of a 1% Congo Red solution in PBS buffer (pH 7.4) was added around and on top of each of the gel aliquots and then the excess Congo Red solution was wiped off prior to examination.
ST14 and T14 were plated at varying concentrations of 0.5%, 1.0%, 1.5%, 2.0%, 2.5% and 5.0%. Visualization of gel formation determined the success or failure of gelation at each concentration.

[6] = Rheological properties at various concentrations (stress sweep, rheometer); format: physicochemical; conditions: 37° C.; for Loss Modulus (G′) / Storage Modulus (G′): at 1 Pa of oscillation stress; for Loss Modulus (G′) / Storage Modulus (G′) / Max. Viscosity (max η′) / Yield Stress: 10 rad/s; for Max. Viscosity (max η′) / Yield Stress: stress sweep
Procedure: The rheological properties of the ST14 were evaluated at various concentrations using a rheometer (AR500, TA Instruments) with 40 mm plates. Peptide solution (700 μL) was placed on the rheometer plate and excess solution was gently removed by Kimwipes; measurements were performed after 2 minutes of relaxation time at 37° C. The storage modulus, loss modulus, and viscosity (η′) were measured at 37° C. with the plates placed at a measuring geometry gap of 300 μm, and stress sweep tests were performed at 0.1 Pa˜1000 Pa of oscillation stress with angular frequency at 10 rad/s.

[7] = Effect of DMEM treatment on rheological properties (storage modulus); format: physicochemical; conditions: 1% peptide; DMEM (pH 7.4) for 2 minutes; 1 Pa, 10 rad/s; 37° C.
Procedure: The effects of Dulbecco's modified Eagle's medium (DMEM) (pH 7.4) on the rheological properties of ST14 were evaluated on a rheometer (AR500, TA Instruments) with 40 mm plates. DMEM is a cell culture medium that contains 6.4 g/L of NaCl, 3.4 g/L NaHCO3 (sodium bicarbonate), minor amounts of other salts, various amino acids, and 4.5 g/L of glucose. The pH of DMEM is 7.2±0.2 and the osmolality is 335±30 mOsm/Kg H2O; both measurements are close to human physiological fluids such as blood. Peptide solutions (1%) were kept in 4° C. for at least 48 hours before testing. To perform the experiment, 1 mL of peptide solution was gently pipetted and placed on the plate of the rheometer. 2 mL of DMEM solution was gently added around the peptide solution. The peptide solution was treated with DMEM for two minutes, then the media was removed, and the plates were placed at a measuring geometry gap at around 450 μm. Measurements were performed at 37° C. after 2 min of relaxation time. Frequency tests were performed from 1 rad/s to 100 rad/s at 1 Pa of oscillation stress.
The rheological properties of ST14 (1%) were compared before and after DMEM treatment for 2 minutes in FIG. 14. […]

[8] = system: C57 BL/6 Mouse Mesenchymal Stem Cells (mMSCs); assay: Cell viability (cytotoxicity) assay in hydrogel drop cultures; format: cell-based; conditions: 5 million cells/ml, 10% sucrose, peptide concentration over 0.75% (tested 0.50% to 1.5%)
Procedure: A cell viability (cytotoxicity) assay was performed to measure the ability of ST14 o support the viability of C57 BL/6 Mouse Mesenchymal Stem Cells (mMSCs)—a frequently-used cell line in hydrogel tissue culture systems. The hydrogel was prepared at a concentration of 2.5% and then diluted to concentrations of 1.5%, 1.25%, 1.0%, 0.75%, and 0.50% with sucrose, so that the final concentration of sucrose was 10%. Cells were washed and re-suspended in 10% sucrose to a final concentration of 5 million cells/ml. Cells were centrifuged and the supernatant was removed. The cells were re-suspended in each of the concentrations of hydrogels in 10% sucrose. The protocol was then followed for plating drop cultures and subsequent isolation as described in the PuraMatrix® Guidelines for Use (BD/Corning website).

[9] = concentration 0.5% in deionized water
[10] = concentration 1.0% in deionized water
[11] = concentration 1.5% in deionized water
[12] = concentration 2.0% in deionized water
[13] = concentration 2.5% in deionized water

AFM morphology (nano structure) [1]: Aggregates have been detected
degradation during autoclave treatment (mass spec) [2]: did not degrade
appearance of solution in deionized water ([3]; 1 percent w/v to 5 percent w/v): translucent
thickness of solution in deionized water ([3]; 5 percent w/v): formed a thick solution
pH [4, 9]: 2.5
pH [4, 10]: 2.3
pH [4, 11]: 2.2
pH [4, 12]: 2.1
pH [4, 13]: 2.0
gel formation (Congo Red) ([5]; below 1%): did not form a gel
Structure (SMILES): CC(O)C(N)C(=O)NC(C(=O)NC(C(=O)NC(C(=O)NC(C(=O)NC(C(=O)NC(C(=O)NC(C(=O)NC(C(=O)NC(C(=O)NC(C(=O)NC(C(=O)NC(C(=O)NC(C(=O)O)C(C)O)C(C)O)C(C)O)C(C)O)C(C)O)C(C)O)C(C)O)C(C)O)C(C)O)C(C)O)C(C)O)C(C)O)C(C)O (stereo not drawn) [Peptide T14]

Structure (SMILES): CC(O)C(NC(=O)C(CO)NC(=O)C(NC(=O)C(CO)NC(=O)C(NC(=O)C(CO)NC(=O)C(NC(=O)C(CO)NC(=O)C(NC(=O)C(CO)NC(=O)C(NC(=O)C(CO)NC(=O)C(NC(=O)C(N)CO)C(C)O)C(C)O)C(C)O)C(C)O)C(C)O)C(C)O)C(=O)O (stereo not drawn) [ST14] (H-STSTSTSTSTSTST-OH; configuration not given here)
AFM morphology (nano structure) [1]: forms self-assembled nanofibers
degradation during autoclave treatment (mass spec) [2]: did not degrade
appearance of solution in deionized water ([3]; 1 percent w/v to 5 percent w/v): translucent
thickness of solution in deionized water ([3]; 1 percent w/v to 5 percent w/v): formed thick solutions
pH [4, 9]: 2.5
pH [4, 10]: 2.2
pH [4, 11]: 2.1
pH [4, 12]: 2.0
pH [4, 13]: 1.9
gel formation (Congo Red) ([5]; 0.5%): did not form a gel
Loss Modulus (G′) ([6]; Concentration 1): 11.4 Pa
Storage Modulus (G′) ([6]; Concentration 1): 67 Pa
Max. Viscosity (max η′) ([6]; Concentration 1): 1.2 Pa-s
Yield Stress ([6]; Concentration 1): 5.0 Pa
Loss Modulus (G′) ([6]; Concentration 1.5): 9.8 Pa
Storage Modulus (G′) ([6]; Concentration 1.5): 94 Pa
Max. Viscosity (max η′) ([6]; Concentration 1.5): 1.5 Pa-s
Yield Stress ([6]; Concentration 1.5): 7.9 Pa
Loss Modulus (G′) ([6]; Concentration 2): 17.3 Pa
Storage Modulus (G′) ([6]; Concentration 2): 136 Pa
Max. Viscosity (max η′) ([6]; Concentration 2): 2.0 Pa-s
Yield Stress ([6]; Concentration 2): 10.0 Pa
Loss Modulus (G′) ([6]; Concentration 2.5): 17.1 Pa
Storage Modulus (G′) ([6]; Concentration 2.5): 167 Pa
Max. Viscosity (max η′) ([6]; Concentration 2.5): 2.2 Pa-s
Yield Stress ([6]; Concentration 2.5): 15.9 Pa
storage modulus, yield stress, and max. viscosity versus concentration ([6]; concentrations 1 to 2.5): increased with increasing concentration
fold increase of storage moduli after DMEM treatment [7]: 6.9 fold
cell viability [8]: significantly decreased
